# Test results reported in US7410974B2, “Halogenated Quinazolinyl nitrofurans as antibacterial agents” (Ulysses Pharmaceutical Products, Inc., priority 2003, dated 2008).
# Like-named read-outs stand apart in the source and are kept apart here.
# How the values were obtained:
# S. aureus ATCC 29213 = assay: MIC broth microdilution (NCCLS); assay type: cell-based, Staphylococcus aureus; conditions: Staphylococcus aureus, ATCC29213; S. aureus ATCC 29213; read-out: MIC
# Procedure: (§1) Minimal Inhibitory Concentration (MIC) Determination. Bacteria (primary strain panel, TABLE 1). Susceptibility tests were performed following the recommendations from the National Committee for Clinical Standards (NCCLS). The MICs were determined by a broth microdilution technique using a final volume of 100 μl of cation-adjusted Mueller Hinton Broth (MHBCA) and a bacterial inoculum of 10^5-10^6 Colony Forming Units (CFU)/ml. The inocula were verified and precisely determined by applying 10-μl drops of 10-fold dilutions onto Triptic Soy Agar plates. The CFU were counted after an incubation of 24 h at 35° C. Any experiment showing an inoculum that was more or less than 10^5-10^6 CFU/ml was rejected. Control antibiotics and test compounds were prepared at a concentration equivalent to 2-fold the highest desired final concentration. Compounds were then diluted directly in the 96-well microtiter plates by serial 2-fold dilutions using a multichannel pipette. Microtiter plates were incubated during 24 h at 35° C. and growth was recorded by using a microtiterplate reader at 650 nm as well as by visual observation. The MIC was defined as the lowest concentration of compound yielding no visible growth. […] Fastidious bacteria. The medium used for Listeria monocytogenes, Neisseria meningitidis, and Campylobacter jejuni was MHBCA containing 2% laked horse blood. The medium used for Haemophilus influenzae and Branhamella (Moraxella) catarrhalis was HTM as recommended by the NCCLS. Cultures of these fastidious bacteria were incubated at 35° C. in a 5% CO2 atmosphere. […] The medium used for Bacteroides fragilis was Wilkins Chalgren broth and growth was allowed under an anaerobic atmosphere at 35° C. for 48 hours.
# S. aureus MRSA COL = assay: MIC broth microdilution (NCCLS); assay type: cell-based, Staphylococcus aureus; conditions: Staphylococcus aureus, MRSA
# Procedure: as §1, with “hours. […]” for “hours.”
# [1] = system: S. epidermidis ATCC 12228; assay: MIC broth microdilution (NCCLS); assay type: cell-based, Staphylococcus epidermidis; conditions: Staphylococcus epidermidis, ATCC12228; S. epidermidis ATCC 12228; read-out: MIC
# Procedure: as §1
# [2] = system: S. saprophyticus ATCC 15305; assay: MIC broth microdilution (NCCLS); assay type: cell-based, Staphylococcus saprophyticus; conditions: Staphylococcus saprophyticus, ATCC15305; S. saprophyticus ATCC 15305; read-out: MIC
# Procedure: as §1
# E. faecalis ATCC 29212 = assay: MIC broth microdilution (NCCLS); assay type: cell-based, Enterococcus faecalis; conditions: Enterococcus faecalis, ATCC29212; E. faecalis ATCC 29212; read-out: MIC
# Procedure: as §1
# E. faecium ATCC 35667 = assay: MIC broth microdilution (NCCLS); assay type: cell-based, Enterococcus faecium
# Procedure: as §1
# E. coli ATCC 25922 = assay: MIC broth microdilution (NCCLS); assay type: cell-based, Escherichia coli; conditions: Escherichia coli, ATCC25922, E. coli ATCC 25922 (Reference); read-out: MIC
# Procedure: as §1
# S. typhimurium ATCC14028 = assay: MIC broth microdilution (NCCLS); assay type: cell-based, Salmonella typhimurium; conditions: Salmonella enterica; S. typhimurium ATCC14028; read-out: MIC
# Procedure: as §1
# A. baumannii ATCC 19606 = assay: MIC broth microdilution (NCCLS); assay type: cell-based, Acinetobacter baumannii; conditions: Acinetobacter baumannii, ATCC19606, read-out: MIC
# Procedure: as §1
# [3] = system: Y. enterocolytica ATCC 23715; assay: MIC broth microdilution (NCCLS); assay type: cell-based, Yersinia enterocolytica; conditions: Yersinia, ATCC23715, read-out: MIC
# Procedure: as §1
# M. smegmatis ATCC 19420 = assay: MIC broth microdilution (NCCLS), fastidious bacteria; assay type: cell-based, Mycobacterium smegmatis; conditions: Mycolicibacterium smegmatis, ATCC19420, read after 48 hours
# Procedure: as §1
# E. faecium VanA = assay: MIC broth microdilution, antibiotic resistant strain panel; assay type: cell-based; conditions: Enterococcus faecium
# Procedure: as §1
# (§2) Finally, compounds were also tested against populations of various clinical strains (antibiotic resistant strain panel, TABLE 1).
# H. influenzae ATCC 49247 [4] = assay: MIC broth microdilution (NCCLS), fastidious bacteria; assay type: cell-based; conditions: Haemophilus influenzae, ATCC49247, HTM, 5% CO2
# Procedure: as §1
# H. influenzae ATCC 49766 [5] = assay: as above; assay type: cell-based; conditions: Haemophilus influenzae, ATCC49766, HTM, 5% CO2
# Procedure: as §1
# B. catarrhalis ATCC 8176 [6] = assay: as above; assay type: cell-based, Branhamella (Moraxella) catarrhalis; conditions: Moraxella catarrhalis, ATCC8176, HTM, 5% CO2
# Procedure: as §1
# H. influenzae ATCC 49247 [7] = assay: Minimal Bactericidal Concentration (MBC); assay type: cell-based; conditions: Haemophilus influenzae, ATCC49247, 99.9% killing
# Procedure: (§3) Minimal Bactericidal Concentration (MBC). After the microtiter plates were read for the determination of the MIC, a 10-μl sample of each clear well (at least 5 wells without visible growth) was applied onto TSA plates for viable counts determination.
# (§4) Petri dishes were incubated at 35° C. for exactly 24 h and bacterial colonies were counted.
# H. influenzae ATCC 49766 [8] = assay: Minimal Bactericidal Concentration (MBC); assay type: cell-based; conditions: Haemophilus influenzae, ATCC49766, 99.9% killing
# Procedure: as §3, §4
# B. catarrhalis ATCC 8176 [9] = assay: Minimal Bactericidal Concentration (MBC); assay type: cell-based, Branhamella (Moraxella) catarrhalis; conditions: Moraxella catarrhalis, ATCC8176, 99.9% killing
# Procedure: as §3, §4
# [10] = system: L. monocytogenes ATCC 13932; assay: MIC broth microdilution (NCCLS), fastidious bacteria; assay type: cell-based; conditions: Listeria monocytogenes, ATCC13932, MHBCA with 2% laked horse blood, 5% CO2
# Procedure: as §1
# MRSA strain Sa211c = assay: MIC broth microdilution, antibiotic resistant strain panel; assay type: cell-based, Staphylococcus aureus; conditions: Staphylococcus aureus; multi-resistant MRSA strain Sa211c; read-out: MIC
# Procedure: as §1, §2
# MRSA strain Sa212c = assay: as above; assay type: cell-based, Staphylococcus aureus; conditions: Staphylococcus aureus; multi-resistant MRSA strain Sa212c; read-out: MIC
# Procedure: as §1, §2
# MRSA strain Sa220c = assay: as above; assay type: cell-based, Staphylococcus aureus; conditions: Staphylococcus aureus; multi-resistant MRSA strain Sa220c; read-out: MIC
# Procedure: as §1, §2
# MRSA strain Sa224c = assay: as above; assay type: cell-based, Staphylococcus aureus; conditions: Staphylococcus aureus; multi-resistant MRSA strain Sa224c; read-out: MIC
# Procedure: as §1, §2
# MRSA strain Sa228c = assay: as above; assay type: cell-based, Staphylococcus aureus; conditions: Staphylococcus aureus; multi-resistant MRSA strain Sa228c; read-out: MIC
# Procedure: as §1, §2
# MRSA strain Sa234c = assay: as above; assay type: cell-based, Staphylococcus aureus; conditions: Staphylococcus aureus; multi-resistant MRSA strain Sa234c; read-out: MIC
# Procedure: as §1, §2
# MRSA strain Sa248c = assay: as above; assay type: cell-based, Staphylococcus aureus; conditions: Staphylococcus aureus; multi-resistant MRSA strain Sa248c; read-out: MIC
# Procedure: as §1, §2
# MRSA strain Sa249c = assay: as above; assay type: cell-based, Staphylococcus aureus; conditions: Staphylococcus aureus; multi-resistant MRSA strain Sa249c; read-out: MIC
# Procedure: as §1, §2
# MRSA strain Sa253c = assay: as above; assay type: cell-based, Staphylococcus aureus; conditions: Staphylococcus aureus; multi-resistant MRSA strain Sa253c; read-out: MIC
# Procedure: as §1, §2
# [11] = S. aureus MRSA COL, read-out: MIC
# [12] = Enterococcus faecium, ATCC35667, E. faecium ATCC 35667, read-out: MIC
# [13] = multi-resistant E. faecium VanA, read-out: MIC
Compound,MIC (S. aureus ATCC 29213) [mg/L],MIC (S. aureus MRSA COL; [11]) [mg/L],MIC [1] [mg/L],MIC [2] [mg/L],MIC (E. faecalis ATCC 29212) [mg/L],MIC (E. faecium ATCC 35667; [12]) [mg/L],MIC (E. coli ATCC 25922) [mg/L],MIC (S. typhimurium ATCC14028) [mg/L],MIC (A. baumannii ATCC 19606) [mg/L],MIC [3] [mg/L],MIC (M. smegmatis ATCC 19420) [mg/L],MIC (E. faecium VanA; [13]) [mg/L],MIC (H. influenzae ATCC 49247 [4]) [mg/L],MIC (H. influenzae ATCC 49766 [5]) [mg/L],MIC (B. catarrhalis ATCC 8176 [6]) [mg/L],MBC (H. influenzae ATCC 49247 [7]) [mg/L],MBC (H. influenzae ATCC 49766 [8]) [mg/L],MBC (B. catarrhalis ATCC 8176 [9]) [mg/L],also measured
NC(=O)N/N=C/c1ccc([N+](=O)[O-])o1 [Nitrofurazone],16,8 to 16,8,8,64,128,8 to 16,8,32,64,64,64,–,–,–,–,–,–,MIC (E. faecium ATCC 35667; E. faecium ATCC 35667): >64 mg/L
CO/N=C(\C(=O)N[C@@H]1C(=O)N2C(C(=O)O)=C(COC(C)=O)CS[C@H]12)c1csc(N)n1 [Cefotaxime],1 to 2,–,0.5 to 1,8,2 to 8,16,0.06 to 0.12,> 2,16,> 2,–,> 128,0.12,0.008,0.03,0.12,0.008,0.06,MIC (S. aureus MRSA COL): 512 mg/L
CO[C@H]1/C=C/O[C@@]2(C)Oc3c(C)c(O)c4c(O)c(c(/C=N/N5CCN(C)CC5)c(O)c4c3C2=O)NC(=O)/C(C)=C\C=C\[C@H](C)[C@H](O)[C@@H](C)[C@@H](O)[C@@H](C)[C@H](OC(C)=O)[C@@H]1C [Rifampicin],0.008 to 0.015,0.008 to 0.015,0.004 to 0.008,0.03,0.5 to 1,32,8,–,4,8,8,–,–,–,–,–,–,–,MIC [10]: 0.06 mg/L; MIC (E. faecium VanA): > 128 mg/L
C[C@@H](O)[C@H]1C(=O)N2C(C(=O)O)=C(S[C@@H]3CN[C@H](C(=O)N(C)C)C3)[C@H](C)[C@H]12 [Meropenem],0.06,16,0.06,0.25,2 to 4,16,0.015 to 0.06,–,2,> 0.5,–,–,0.06,0.03,0.002,0.06,0.06,0.008,–
CC[C@H]1OC(=O)[C@H](C)[C@@H](O[C@H]2C[C@@](C)(OC)[C@@H](O)[C@H](C)O2)[C@H](C)[C@@H](O[C@@H]2O[C@H](C)C[C@H](N(C)C)[C@H]2O)[C@](C)(O)C[C@@H](C)C(=O)[C@H](C)[C@@H](O)[C@]1(C)O [Erythromycin],0.5,0.25,0.5,0.25,2 to 4,2,64,–,–,–,–,–,2,8,0.06,2,16,0.12,MIC (MRSA strain Sa211c): > 32 mg/L; MIC (MRSA strain Sa212c): > 32 mg/L; MIC (MRSA strain Sa220c): 0.5 mg/L; MIC (MRSA strain Sa224c): > 32 mg/L; MIC (MRSA strain Sa228c): > 32 mg/L; MIC (MRSA strain Sa234c): > 32 mg/L; MIC (MRSA strain Sa248c): > 128 mg/L; MIC (MRSA strain Sa249c): > 128 mg/L; MIC (MRSA strain Sa253c): > 128 mg/L
